Source: patent publication US7990502B2, “Liquid-crystal display device” (Fujifilm Corporation, priority 2007, dated 2011)

Experiment: log P value (octanol-water partition coefficient) of the compound capable of mending the humidity dependence
Type: physicochemical
Conditions: octanol-water partition coefficient of the humidity-dependence mending compound used in the second retardation film
From the text: Log P of the compound capable of mending the humidity dependence for use in the invention is preferably from 3 to 10, more preferably from 3 to 7. Using the compound capable of mending the humidity dependence having log P that falls within the above range may reduce the humidity dependence of Re not causing a face condition trouble such as bleeding out, etc.
The log P value means an octanol-water partition coefficient, and it may be determined according to the flask shaking method described in JIS (Japanese Industrial Standards) Z7260-107 (2000). In place of determining it through actual measurement, the octanol-water partition coefficient (log P value) may be estimated according to a computational chemical method or an experimental method. As the computational method, preferably employed are a Crippen's fragmentation method (J. Chem. Inf. Comput. Sci., 27, 21 (1987)), a Viswanadhan's fragmentation method (J. Chem. Inf. Comput. Sci., 29, 163 (1989)), a Broto's fragmentation method (Eur. J. Med. Chem.-Chim. Theor., 19, 71 (1984)). Particularly, the Crippen's fragmentation method (J. Chem. Inf. Comput. Sci., 27, 21 (1987)) is preferably employed. In case where the log P value of a certain compound differs depending on the measurement method or the computational method employed, the compound is preferably judged according to a Crippen's fragmentation method as to whether or not it could fall within the preferred range.

In the case of `O=C(Oc1ccccc1)[C@H]1CC[C@H](C(=O)Oc2ccccc2)CC1` [Compound A-1], the logP is reported as 3.7.

`Cc1ccc(OC(=O)[C@H]2CC[C@H](C(=O)Oc3ccc(C)cc3C)CC2)c(C)c1` [Compound A-6] gave a logP of 5.7.

For `CCc1ccc(OC(=O)[C@H]2CC[C@H](C(=O)Oc3ccc(CC)cc3)CC2)cc1` [Compound A-3], the logP was 5.8.

`CCCCCCCc1ccc(OC(=O)[C@H]2CC[C@H](C(=O)Oc3ccc(CCCCCCC)cc3)CC2)cc1` [D] showed a logP of 11.
